Legend:
Type in all cases: in vivo
[1] = test system: pigweed (Amaranthus retroflexus); assay: Test A postemergence, pigweed; settings: 0 to 100 scale
Procedure, shortened: (§1)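 Greenhouse pot test, loam/sand soil. Pre: directed soil spray at planting; post: foliar spray at 1–2 leaf stage (2–10 cm). Chemical in non-phytotoxic solvent + surfactant. Visual rating ~10 d, 0 = no effect, 100 = complete control.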

[2] = test system: ducksalad (Heteranthera limosa); assay: Test B flooded paddy test, ducksalad; settings: Flood, 250 g ai/ha, applied to paddy water, 2-leaf stage, visual evaluation after 13 to 15 d
Procedure, shortened: (§2)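 Growth to two leaves preceded treatment. Flooding to 3 cm above soil surface, then water-applied compound; depth kept constant. Scored visually relative to controls after 13–15 d greenhouse; 100 means full control.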

[3] = test system: pigweed (Amaranthus retroflexus); assay: Test A preemergence, pigweed; settings: 0 to 100 scale
Procedure, shortened: as §1

[4] = test system: sedge, umbrella (small-flower umbrella sedge, Cyperus difformis); assay: Test B flooded paddy test, umbrella sedge; settings: Flood, 250 g ai/ha, applied to paddy water, 2-leaf stage, visual evaluation after 13 to 15 d
Procedure, shortened: as §2

[5] = test system: ryegrass, Italian (Lolium multiflorum); assay: Test A postemergence, Italian ryegrass; settings: 0 to 100 scale
Procedure, shortened: as §1

[6] = test system: ryegrass, Italian (Lolium multiflorum); assay: Test A preemergence, Italian ryegrass; settings: 0 to 100 scale
Procedure, shortened: as §1

[7] = test system: wheat (Triticum aestivum); assay: Test A postemergence, wheat; settings: 0 to 100 scale
Procedure, shortened: as §1

kochia (Kochia scoparia) [8] = assay: Test A postemergence, kochia; settings: 0 to 100 scale
Procedure, shortened: as §1

[9] = test system: blackgrass (Alopecurus myosuroides); assay: Test A postemergence, blackgrass; settings: 0 to 100 scale
Procedure, shortened: as §1

[10] = test system: foxtail, giant (Setaria faberii); assay: Test A postemergence, giant foxtail; settings: 0 to 100 scale
Procedure, shortened: as §1

kochia (Kochia scoparia) [11] = assay: Test A preemergence, kochia; settings: 0 to 100 scale
Procedure, shortened: as §1

[12] = test system: foxtail, giant (Setaria faberii); assay: Test A preemergence, giant foxtail; settings: 0 to 100 scale
Procedure, shortened: as §1

[13] = test system: barnyardgrass (Echinochloa crus-galli); assay: Test A postemergence, barnyardgrass; settings: 0 to 100 scale
Procedure, shortened: as §1

corn (Zea mays) = assay: Test A postemergence, corn; settings: 0 to 100 scale
Procedure, shortened: as §1

[14] = test system: ragweed (common ragweed, Ambrosia elatior); assay: Test A preemergence, ragweed; settings: 0 to 100 scale
Procedure, shortened: as §1

rice (Oryza sativa) = assay: Test B flooded paddy test, rice; settings: Flood, 250 g ai/ha, applied to paddy water, 2-leaf stage, visual evaluation after 13 to 15 d
Procedure, shortened: as §2

[15] = test system: barnyardgrass (Echinochloa crus-galli); assay: Test A preemergence, barnyardgrass; settings: 0 to 100 scale
Procedure, shortened: as §1

[16] = test system: barnyardgrass (Echinochloa crus-galli); assay: Test B flooded paddy test, barnyardgrass; settings: Flood, 250 g ai/ha, applied to paddy water, 2-leaf stage, visual evaluation after 13 to 15 d
Procedure, shortened: as §2

[17] = test system: galium (catchweed bedstraw, Galium aparine); assay: Test A postemergence, galium; settings: 0 to 100 scale
Procedure, shortened: as §1

[18] = test system: ragweed (common ragweed, Ambrosia elatior); assay: Test A postemergence, ragweed; settings: 0 to 100 scale
Procedure, shortened: as §1

Structure (SMILES): C[C@@H](Nc1ncc(C(F)(F)F)c(N)n1)c1cc2ccc(F)cc2o1 [Compound 8, N2-[(1R)-1-(6-fluoro-2-benzofuranyl)ethyl]-5-(trifluoromethyl)-2,4-pyrimidinediamine]
- pest or weed control at 125 g/ha ([1]; Amaranthus retroflexus, post-emergence, 240 h, 125 g ai/ha, read-out: Plant response rating, Pigweed): 100%
- pest or weed control at 500 g/ha ([1]; Amaranthus retroflexus, post-emergence, 240 h, 500 g ai/ha, read-out: Plant response rating, Pigweed): 100%
- pest or weed control at 250 g/ha ([2]; Heteranthera limosa, 360 h, read-out: Plant response rating, Ducksalad (0 to 100 scale, 0 is no effect, 100 is complete control)): 98%
- Plant response rating, Pigweed ([3]; 125 g ai/ha): 80
- Plant response rating, Pigweed ([3]; 500 g ai/ha): 100
- pest or weed control at 250 g/ha ([4]; Cyperus difformis, 360 h, read-out: Plant response rating, Sedge, Umbrella (0 to 100 scale, 0 is no effect, 100 is complete control)): 100%
- pest or weed control at 125 g/ha ([5]; Lolium multiflorum, post-emergence, 240 h, 125 g ai/ha, read-out: Plant response rating, Ryegrass, Italian): 0%
- pest or weed control at 500 g/ha ([5]; Lolium multiflorum, post-emergence, 240 h, 500 g ai/ha, read-out: Plant response rating, Ryegrass, Italian): 0%
- Plant response rating, Ryegrass, Italian ([6]; 125 g ai/ha): 0
- Plant response rating, Ryegrass, Italian ([6]; 500 g ai/ha): 0
- plant injury at 125 g/ha ([7]; Triticum aestivum, post-emergence, 240 h, 125 g ai/ha, read-out: Plant response rating, Wheat): 0%
- plant injury at 500 g/ha ([7]; Triticum aestivum, post-emergence, 240 h, 500 g ai/ha, read-out: Plant response rating, Wheat): 0%
- pest or weed control at 125 g/ha (kochia (Kochia scoparia) [8]; Bassia scoparia, post-emergence, 240 h, 125 g ai/ha, read-out: Plant response rating, Kochia): 80%
- pest or weed control at 500 g/ha (kochia (Kochia scoparia) [8]; Bassia scoparia, post-emergence, 240 h, 500 g ai/ha, read-out: Plant response rating, Kochia): 90%
- pest or weed control at 125 g/ha ([9]; Alopecurus myosuroides, post-emergence, 240 h, 125 g ai/ha, read-out: Plant response rating, Blackgrass): 20%
- pest or weed control at 500 g/ha ([9]; Alopecurus myosuroides, post-emergence, 240 h, 500 g ai/ha, read-out: Plant response rating, Blackgrass): 60%
- pest or weed control at 125 g/ha ([10]; Setaria faberi, post-emergence, 240 h, 125 g ai/ha, read-out: Plant response rating, Foxtail, Giant): 40%
- pest or weed control at 500 g/ha ([10]; Setaria faberi, post-emergence, 240 h, 500 g ai/ha, read-out: Plant response rating, Foxtail, Giant): 90%
- Plant response rating, Kochia (kochia (Kochia scoparia) [11]; 125 g ai/ha): 60
- Plant response rating, Kochia (kochia (Kochia scoparia) [11]; 500 g ai/ha): 90
- Plant response rating, Foxtail, Giant ([12]; 125 g ai/ha): 50
- Plant response rating, Foxtail, Giant ([12]; 500 g ai/ha): 100
- pest or weed control at 125 g/ha ([13]; Echinochloa crus-galli, post-emergence, 240 h, 125 g ai/ha, read-out: Plant response rating, Barnyardgrass): 50%
- pest or weed control at 500 g/ha ([13]; Echinochloa crus-galli, post-emergence, 240 h, 500 g ai/ha, read-out: Plant response rating, Barnyardgrass): 90%
- Corn plant response rating (crop injury, 0 = no effect, 100 = complete kill) at 125 g/ha (corn (Zea mays); Zea mays, post-emergence, 240 h, 125 g ai/ha): 0%
- Corn plant response rating (crop injury, 0 = no effect, 100 = complete kill) at 500 g/ha (corn (Zea mays); Zea mays, post-emergence, 240 h, 500 g ai/ha): 20%
- Plant response rating, Ragweed ([14]; 125 g ai/ha): 90
- Plant response rating, Ragweed ([14]; 500 g ai/ha): 100
- plant injury at 250 g/ha (rice (Oryza sativa); Oryza sativa, 360 h, read-out: Plant response rating, Rice (0 to 100 scale, 0 is no effect, 100 is complete control)): 40%
- Plant response rating, Barnyardgrass ([15]; 125 g ai/ha): 0
- Plant response rating, Barnyardgrass ([15]; 500 g ai/ha): 90
- pest or weed control at 250 g/ha ([16]; Echinochloa crus-galli, 360 h, read-out: Plant response rating, Barnyardgrass (0 to 100 scale, 0 is no effect, 100 is complete control)): 0%
- pest or weed control at 125 g/ha ([17]; Galium, post-emergence, 240 h, 125 g ai/ha, read-out: Plant response rating, Galium): 70%
- pest or weed control at 500 g/ha ([17]; Galium, post-emergence, 240 h, 500 g ai/ha, read-out: Plant response rating, Galium): 90%
- pest or weed control at 125 g/ha ([18]; Ambrosia artemisiifolia, post-emergence, 240 h, 125 g ai/ha, read-out: Plant response rating, Ragweed): 90%
- pest or weed control at 500 g/ha ([18]; Ambrosia artemisiifolia, post-emergence, 240 h, 500 g ai/ha, read-out: Plant response rating, Ragweed): 90%

Structure (SMILES): CC[C@H](COc1cc(C)cc(C)c1)Nc1ncc(C(F)(F)F)c(N)n1 [Compound 27]
- Plant response rating, Pigweed ([1]; 125 g ai/ha): 60
- Plant response rating, Pigweed ([1]; 500 g ai/ha): 90
- Plant response rating, Ducksalad (0 to 100 scale, 0 is no effect, 100 is complete control) [2]: 0
- Plant response rating, Pigweed ([3]; 125 g ai/ha): 10
- Plant response rating, Pigweed ([3]; 500 g ai/ha): 80
- Plant response rating, Sedge, Umbrella (0 to 100 scale, 0 is no effect, 100 is complete control) [4]: 50
- Plant response rating, Ryegrass, Italian ([5]; 125 g ai/ha): 0
- Plant response rating, Ryegrass, Italian ([5]; 500 g ai/ha): 0
- Plant response rating, Ryegrass, Italian ([6]; 125 g ai/ha): 30
- Plant response rating, Ryegrass, Italian ([6]; 500 g ai/ha): 80
- Plant response rating, Wheat ([7]; 125 g ai/ha): 0
- Plant response rating, Wheat ([7]; 500 g ai/ha): 20
- Plant response rating, Kochia (kochia (Kochia scoparia) [8]; 125 g ai/ha): 0
- Plant response rating, Kochia (kochia (Kochia scoparia) [8]; 500 g ai/ha): 70
- Plant response rating, Blackgrass ([9]; 125 g ai/ha): 10
- Plant response rating, Blackgrass ([9]; 500 g ai/ha): 50
- Plant response rating, Foxtail, Giant ([10]; 125 g ai/ha): 0
- Plant response rating, Foxtail, Giant ([10]; 500 g ai/ha): 20
- Plant response rating, Kochia (kochia (Kochia scoparia) [11]; 125 g ai/ha): 0
- Plant response rating, Kochia (kochia (Kochia scoparia) [11]; 500 g ai/ha): 40
- Plant response rating, Foxtail, Giant ([12]; 125 g ai/ha): 20
- Plant response rating, Foxtail, Giant ([12]; 500 g ai/ha): 90
- Plant response rating, Barnyardgrass ([13]; 125 g ai/ha): 0
- Plant response rating, Barnyardgrass ([13]; 500 g ai/ha): 20
- Plant response rating, Corn (corn (Zea mays); 125 g ai/ha): 0
- Plant response rating, Corn (corn (Zea mays); 500 g ai/ha): 20
- Plant response rating, Ragweed ([14]; 125 g ai/ha): 70
- Plant response rating, Ragweed ([14]; 500 g ai/ha): 90
- Plant response rating, Rice (0 to 100 scale, 0 is no effect, 100 is complete control) (rice (Oryza sativa)): 0
- Plant response rating, Barnyardgrass ([15]; 125 g ai/ha): 10
- Plant response rating, Barnyardgrass ([15]; 500 g ai/ha): 90
- Plant response rating, Barnyardgrass (0 to 100 scale, 0 is no effect, 100 is complete control) [16]: 0
- Plant response rating, Galium ([17]; 125 g ai/ha): 90
- Plant response rating, Galium ([17]; 500 g ai/ha): 90
- Plant response rating, Ragweed ([18]; 125 g ai/ha): 20
- Plant response rating, Ragweed ([18]; 500 g ai/ha): 90

From patent publication US20220119354A1, “DIAMINO-SUBSTITUTED PYRIDINES AND PYRIMIDINES AS HERBICIDES” (FMC Corporation, priority 2019, published 2022)
